Patent publication US20050026833A1, “PSP-94: use for treatment of hypercalcemia and bone metastasis” (priority 2001, published 2005)
“Also recorded” adds a separate entry of the source.

How the values were obtained:
Mat Ly Lu-PTHrP cells = assay: Mat Ly Lu-PTHrP cell growth curve (Coulter counter); format: cell-based, rat
Protocol: Growth curve. For growth curves, Mat Ly Lu-PTHrP cells were plated in 6-well plates (Falcon Plastics, Oxnard, Calif.) at seeding densities of 5×10^3 cells/well. Mat Ly Lu-PTHrP cells were grown in the presence of 0.1, 1.0 & 10.0 ug/ml of PSP-94 or vehicle alone for up to 3 days and the ability of PSP-94 to alter cell doubling time was evaluated daily. Medium was changed every two days. The number of cells was counted in a model Z Coulter counter (Coulter Electronics, Beds, UK). Comparison was also made with doubling time of wild type untransfected Mat Ly Lu cells.
Mat Ly Lu cells transfected with vector alone (CMV) or vector expressing PTHrP were seeded at a density of 5×10^3 cells/well in 6-well plates. Mat Ly Lu-PTHrP cells were treated with PSP-94 and were trypsinized and counted using a coulter counter as described herein. Change in cell number following treatment with 10.0 ug/ml of PSP-94 for 72 hrs is illustrated in FIG. 1.
Mat Ly Lu-PTHrP cells were seeded at a density of 5×10^3 cells/well in 6-well plates and treated with different doses (1.0-100.0 ug/ml) of PCK3145 for up to 5 days and were trypsinized and counted using a coulter counter as described herein.

[1] = system: Mat Ly Lu-PTHrP skeletal metastasis; assay: I.C. inoculation skeletal metastasis model, hind limb paralysis; format: in vivo, male Copenhagen rats
Protocol: Animal Protocols. Inbred male Copenhagen rats weighing 200-250g were obtained from Harlan Sprague-Dawley (Indianapolis, Ind.). Before inoculation, Mat Ly Lu-PTHrP tumor cells growing in serum-containing medium were washed with Hanks buffer, trypsinized, and collected by centrifugation at 1500 rpm for 5 min. […] Animals were divided into control groups which received vehicle alone (PBS: phosphate buffered saline) and experimental groups which were infused I.P. with different doses (0.1-10.0 ug/kg/day) of PSP-94 starting at the time of tumor cell inoculation (day 0) until the day of skeletal metastasis development. The time after tumor cell inoculation which was required to develop hind limb paralysis (an index of spinal cord compression due to lumbar vertebrae metastasis) was determined and percentage of starting number of animals developing hind-limb paralysis was plotted.
Alternatively, cell pellets (10×10^3 cells) were resuspended in 100ul saline and injected using 1 ml syringes into the left ventricle of rats anaesthetised with ketamine/xylazine cocktail. […] The time after tumor cell inoculation which was required to develop hind limb paralysis (an index of spinal cord compression due to lumbar vertebrae metastasis) was determined and percentage of starting number of animals developing hind-limb paralysis was plotted. In other sets of experiments, following I.C. tumor cell inoculation, control animals receiving PBS and experimental animals receiving 100.0 ug/kg/day of PCK3145 were sacrificed before the development of hind-limb paralysis (day 10 post tumor cell inoculation) and their vertebral column spanning from L1-L5 was removed and subjected to bone histomorphometric and immunohistochemical analysis as described herein.
Thus, male Copenhagen rats were inoculated via I.C. route into the left ventricle with 10×10^3 Mat Ly Lu-PTHrP cells. Starting on the time of tumor cell inoculation (day 0) animals were infused with different doses of PSP-94 (0.1-10.0 ug/kg/day) until the day of development of hind-limb paralysis as described herein. Animals receiving vehicle alone as control (CTL) or PSP-94 were monitored daily for the development of hind-limb paralysis and % animals not paralyzed at different time points in each group was calculated.
Male Copenhagen rats were inoculated with Mat Ly L u-PTHrP cells (10×10^3) into the left ventricle via I.C. injections. Starting on the day of tumor cell inoculation (day 0), experimental animals received different doses of PCK3145 (1.0-100.0 ug/kg/day) via I.P. route. To evaluate the effect of PCK3145 on delaying the development of experimental skeletal metastasis, animals were evaluated daily by monitoring of the animals for the development of hind-limb paralysis. […]

| Molecule | cell growth (Mat Ly Lu-PTHrP cells; PCK3145 1.0-100.0 ug/ml up to 5 days, vs vehicle) | cell number (Mat Ly Lu-PTHrP cells; PCK3145 highest dose 100.0 ug/ml, vs vehicle) | number of animals developing hind limb paralysis ([1]; 100.0 ug/kg/day PCK3145 I.P. from day 0, vs vehicle) | time of developing hind limb paralysis ([1]; 1.0 and 10.0 ug/kg/day PCK3145 I.P. (data not shown)) | MatLyLu-PTHrP cell growth (Mat Ly Lu-PTHrP cells; 10.0 ug/ml PSP-94 for 72 hrs, vs cells without PSP-94) | number of animals developing hind limb paralysis (delay in skeletal metastasis) ([1]; 10.0 ug/kg/day PSP-94 from day 0, vs vehicle) | time of hind limb paralysis ([1]; 0.1 and 1.0 ug/kg/day PSP-94 (data not shown)) |
| --- | --- | --- | --- | --- | --- | --- | --- |
| E W Q T D N C E T C T C Y E T (EWQTDNCETCTCYET; PCK3145 (polypeptide 31-45)) | dose dependent decrease | significant reduction | statistically significant delay | no significant effect | – | – | – |
| PSP-94: prostate secretory protein of 94 amino acids; native human seminal plasma PSP-94 (protein) SCYFIPNEGVPGDSTRKCMDLKGNKHPINSEWQTDNCETCTCYETEISCCTLVSTPVGYDKDNCQRIFKKEDCKYIVVEKKDPKKTCSVSEWII | – | – | – | – | significant decrease | statistically significant delay; also recorded: modest (but measurable) delay | no significant effect |
